Here are results for two molecules from US20030035812A1, “Immune enhancement compositions and use thereof” (priority 2000, published 2003).

The test system of assay [1] is Sendai virus. Nature of the assay: Circulating antibody unit (HIU) in serum by hemagglutination inhibition (HI) reaction after vaccine administration. Format: in vivo, mouse. The note with it: 500 CIU vaccine nasally. As to the method:
The provitamins prepared to have a composition in the following Formulation Examples 1 to 4 were individually or in combination (hereinafter referred to as “provitamin”) dissolved in a phosphate buffered saline (PBS) to a concentration of 0.5% and then continuously administered perorally or peritoneally to a mouse (ICR, 3 weeks old, male) from two weeks before the administration of a vaccine. The sample was administered such that APM per day was 80 mg/kg-body weight in the case of peroral administration and the dose per day was 40 mg/kg-body weight in the case of injection.
The vaccine used here was TR-5 strain which is an attenuated strain of Sendai virus, and 500 CIU (cell infectious unit) thereof was nasally administered to a mouse under ether anesthesia. That is, a stock solution (10^6 CIU/ml) of TR-5 strain was diluted with PBS and 50 μl of each sample was nasally administered. After the administration of vaccine, the serum was sampled in aging (inoculation day, after 7 days, after 14 days and after 21 days) and the antiviral antibody unit in the serum was measured by the hemagglutination inhibition (HI) reaction which inhibits the hemagglutination (HA) reaction.
The HA reaction is a reaction where a virus particle or an HA antigen adsorbs to an erythrocyte and combines the erythrocytes with each other to cause hemagglutination. In the measurement of the HA unit, 2-fold step dilution series of a virus solution are prepared, a constant amount of erythrocytes is added to each dilution and after the passing of a predetermined time, the agglutination image is examined. The HA unit (HAU) is the reciprocal of the highest dilution number in a test tube showing agglutination positive. The HA reaction is inhibited by previously adding an antiviral antibody to the virus solution. This is the HI reaction.
To 25 μl of a serum subjected to 2-fold step dilution, 25 μl of a virus solution adjusted to 16 HAU was added and allowed to stand at room temperature for 1 hour. Subsequently, 50 μl of a 0.5% chicken erythrocyte suspension was added and allowed to stand at 4° C. for 1 hour. Thereafter, the HI unit was determined.

Assay [2] has as its system macrophages. Nature of the assay: Number of macrophages sampled from the abdominal cavity 14 days after vaccine inoculation. Format: in vivo, mouse. The note with it: 500 CIU vaccine, 14 days after inoculation. The method, then:
(§1) The administration of provitamin and inoculation of a vaccine (500 CIU) were performed in the same manner as in Example 1. 14 Days after the inoculation of the vaccine, macrophages were sampled from the abdominal cavity of the mouse and the number of macrophages was counted through a microscope. Also, the activity of the macrophage was examined as follows. Fibrosarcoma SMT-5 (target cell) and the sampled macrophages (effector cell) were mixed at a ratio of 1:7 and cultured in CO2 medium for 24 hours. 8 Hours before the completion of culture, ^3H-thymidine was added and the amount of ^3H-thymidine taken up into the residual target cells was measured by a liquid scintillation counter. From the value obtained, the activity of macrophage was determined. The amount of ^3H-thymidine in the control group was the amount of ^3H-thymidine taken up into the target cells where the macrophages were not added.

Assay [3] deals with Fibrosarcoma SMT-5 (target cell). Nature of the assay: Activity of sampled macrophages against target cells (3H-thymidine uptake). Format: cell-based, mouse. The note with it: 500 CIU vaccine, macrophages sampled day 14, target:effector 1:7, 24 hours. As to the method:
as §1

For assay [4], the system named is Sendai virus. Nature of the assay: Secretory IgA induction by Sendai virus live vaccine, trachea and bronchia wash, ELISA. Format: in vivo, mouse. The note with it: 500 CIU vaccine, 14 days after inoculation. The method, then: The administraion of provitamin and inoculation of a vaccine were performed in the same manner as in Example 1. 14 Days after the inoculation of vaccine, the mouse was sacrificed, the trachea and bronchia were twice washed with 1 ml of PBS (phosphate buffered saline), and IgA recovered in PBS was measured by the enzyme linked immunosorbent assay (ELISA).
Sendai virus was fixed on a plate and reacted with a test solution. Thereafter, peroxidase marker anti-mouse IgA immunoglobulin was reacted and then phenylenediamine 2HCl was added to cause coloration. OD 492 was measured and from the calibration curve obtained based on the standard IgA, the IgA amount in the test solution was determined.
Background: In an ELISA, binding on a coated surface is turned into a signal by an enzyme label.

Assay [5] concerns Sendai virus strongly toxic strain. Nature of the assay: Survival rate after nasal infection with Sendai virus strongly toxic strain. It is filed as in vivo, mouse. The note with it: challenge 15 LD50 at day 14, 20 days after infection. The method, then: The administration of provitamin and inoculation of a vaccine were performed in the same manner as in Example 1, and 14 days after the inoculation of attenuated vaccine, Sendai virus strongly toxic strain (1.7×10^7 CIU/ml) was subjected to 15-hold dilution in PBS. Subsequently, 70 μl of the dilution (about 8×10^4 CIU:15 LD50) was nasally infected to a mouse under ether anesthesia and 20 days after the infection with the strongly toxic strain, the survival rate of mice was examined.
The test solution was step-diluted and each dilution was used for a group of animals. The life and death were examined and the point of dilution degree where 50% of death was recognized was designated as LD50.

Setting [6] is: peritoneal administration of provitamin 40 mg/kg per day, day 0.
[7] abbreviates: peritoneal administration of provitamin 40 mg/kg per day, day 7.
The mark [8] stands for this setting: peritoneal administration of provitamin 40 mg/kg per day, day 14.
Setting [9] is: peritoneal administration of provitamin 40 mg/kg per day, day 21.
Where [10] appears, read: peroral administration of provitamin 80 mg/kg per day, day 0 after inoculation.
Where [11] appears, read: peroral administration of provitamin 80 mg/kg per day, day 7.
The mark [12] stands for this setting: peroral administration of provitamin 80 mg/kg per day, day 14.
Setting [13] is: peroral administration of provitamin 80 mg/kg per day, day 21.
[14] abbreviates: peroral, amount of vaccine inoculated 0 CIU.
[15] abbreviates: peroral, amount of vaccine inoculated 50 CIU.
Where [16] appears, read: peroral, amount of vaccine inoculated 500 CIU.

Regarding `O=C1O[C@H]([C@@H](O)CO)C(O)=C1OP(=O)(O)O` [Formulation Example 1, L-ascorbic acid-2-monophosphate], the HIU is under 16 HIU in assay [1] (setting [6]); 16 HIU in assay [1] (setting [7]); 32 HIU in assay [1] (setting [8]); 64 HIU in assay [1] (setting [9]); under 16 HIU in assay [1] (setting [10]); under 16 HIU in assay [1] (setting [11]). Further, the HIU was 16 HIU in assay [1] (setting [12]) and 64 HIU in assay [1] (setting [13]). The Macrophage/Body is given as 9.1 × 10^6 in assay [2] (peritoneal route) and 6.8 × 10^6 in assay [2] (peroral route). Moreover, the “Macrophage Activity” value in assay [3] (peritoneal route) was determined as 22.1; in assay [3] (peroral route) it was 20.5. Besides, the IgA in assay [4] (peritoneal route) is on record as 69 U/μg; in assay [4] (peroral route) it was 51 U/μg. The “Survival Rate” value is 0/10 in assay [5] (peritoneal, amount of vaccine inoculated 0 CIU); 8/10 in assay [5] (peritoneal, amount of vaccine inoculated 50 CIU); 8/10 in assay [5] (peritoneal, amount of vaccine inoculated 500 CIU); 0/10 in assay [5] (setting [14]); 9/10 in assay [5] (setting [15]); 9/10 in assay [5] (setting [16]).
For `O=C1O[C@H]([C@@H](O)CO)C(O)=C1OP(=O)(O)O` [Formulation Example 2, L-ascorbic acid-2-monophosphate], the HIU is listed as under 16 HIU in assay [1] (setting [6]); under 16 HIU in assay [1] (setting [7]); 32 HIU in assay [1] (setting [8]); 64 HIU in assay [1] (setting [9]); under 16 HIU in assay [1] (setting [10]); under 16 HIU in assay [1] (setting [11]). The values for the HIU in assay [1] (setting [12]) and in assay [1] (setting [13]) were 16 HIU and 64 HIU, respectively. Further, the Macrophage/Body in assay [2] (peroral route) is given as 6.5 × 10^6. In assay [3] (peroral route), the “Macrophage Activity” value was determined as 20.2. Further, the IgA in assay [4] (peroral route) was 69 U/μg. Moreover, the “Survival Rate” value in assay [5] (setting [14]) is on record as 1/10; in assay [5] (setting [15]), 9/10; in assay [5] (setting [16]), 10/10.
